Assay results taken from patent US10975037B2 (priority 2018, dated 2021).
Read-outs that look alike come from different tables or passages of the source.

Key:
full-length human RORγt = full-length human RORγt (Homo sapiens (Human), UniProt P51449); test: RORγt (full-length human) reporter assay, conditions A or B, HEK293T cells; format: cell-based; conditions: for inhibition at 2 µM: 2 μM compound concentration; for IC50: RORγt (FL) Reporter Assay A or B, IC50, HEK293T cells; for inhibition at 3 µM: 3 μM compound concentration (footnote *); for inhibition at 0.67 µM: 0.67 μM compound concentration (footnote ****)
Chain of full-length human RORγt (P51449 other isoform, or with tags, fused parts or gaps): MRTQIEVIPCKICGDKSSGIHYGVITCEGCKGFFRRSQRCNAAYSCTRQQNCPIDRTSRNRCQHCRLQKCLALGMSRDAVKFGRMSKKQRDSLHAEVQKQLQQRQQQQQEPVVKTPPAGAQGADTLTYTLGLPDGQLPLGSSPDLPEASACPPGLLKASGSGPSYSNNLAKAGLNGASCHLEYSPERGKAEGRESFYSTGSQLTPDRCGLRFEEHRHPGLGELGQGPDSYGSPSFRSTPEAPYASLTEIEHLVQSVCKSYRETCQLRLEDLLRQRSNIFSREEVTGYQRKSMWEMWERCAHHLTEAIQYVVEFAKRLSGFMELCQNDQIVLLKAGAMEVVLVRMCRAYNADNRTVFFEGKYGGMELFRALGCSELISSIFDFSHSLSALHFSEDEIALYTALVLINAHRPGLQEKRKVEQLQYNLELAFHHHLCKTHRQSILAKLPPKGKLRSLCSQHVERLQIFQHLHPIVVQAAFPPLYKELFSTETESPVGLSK
How it was run: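 After 16–20 h, dual firefly/Renilla luciferase luminescence was read. Firefly signal was normalized to DMSO and saturating reference compound, then to Renilla, and fitted for IC50; % inhibition is versus DMSO.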

[1] = molecular target: human RORγt ligand binding domain (RORγt LBD) (Homo sapiens (Human), UniProt P51449); test: RORγt ThermoFluor® assay (thermal shift binding); conditions: read-out: ThermoFluor® Assay, Kd
Chain of human RORγt ligand binding domain (RORγt LBD) (P51449 other isoform, or with tags, fused parts or gaps): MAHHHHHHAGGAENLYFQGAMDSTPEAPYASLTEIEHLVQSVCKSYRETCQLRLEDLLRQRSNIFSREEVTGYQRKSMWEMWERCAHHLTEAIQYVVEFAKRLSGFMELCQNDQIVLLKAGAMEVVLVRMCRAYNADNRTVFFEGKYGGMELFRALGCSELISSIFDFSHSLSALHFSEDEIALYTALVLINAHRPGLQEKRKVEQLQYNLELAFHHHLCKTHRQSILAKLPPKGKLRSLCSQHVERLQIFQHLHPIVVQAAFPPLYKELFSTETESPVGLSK
How it was run: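 Thermal shift with 0.065 mg/mL RORγt LBD and 60 μM 1,8-ANS in 100 mM Hepes pH 7.0, 10 mM NaCl, 2.5 mM GSH, 0.002% Tween-20.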

[2] = HEK-293T, read-out: RORγt (FL) Reporter Assay A or B, % inhibition
[3] = HEK-293T, 0.22 μM compound concentration (footnote *******), read-out: RORγt (FL) Reporter Assay A or B, % inhibition

Row | IC50 (full-length human RORγt) [nM] | Kd [1] [nM] | SMILES | also measured
1 | 13 | 2.5 | CC(C)(O)Cn1nc(C(=O)NC[C@H]2CC[C@H](S(C)(=O)=O)CC2)c(Cl)c1-c1ccc(CC(C)(C)C(F)(F)F)cc1OC(F)F [Example 145, 4-Chloro-5-(2-(difluoromethoxy)-4-(3,3,3-trifluoro-2,2-dimethylpropyl)phenyl)-1-(2-hydroxy-2-methylpropyl)-N-(((1r,4r)-4-(methylsulfonyl)cyclohexyl)methyl)-1H-pyrazole-3-carboxamide] | inhibition at 2 µM (full-length human RORγt; [2]): 105%
2 | 15 | 15 | Cc1c(C(=O)NC[C@]2(O)CC[C@@H](S(C)(=O)=O)CC2)nn(CC(C)(C)O)c1-c1ccc(CC(C)(C)C(F)(F)F)cc1OC(F)F [Example 146, 5-(2-(Difluoromethoxy)-4-(3,3,3-trifluoro-2,2-dimethylpropyl)phenyl)-1-(2-hydroxy-2-methylpropyl)-N-(((1s,4s)-1-hydroxy-4-(methylsulfonyl)cyclohexyl)methyl)-4-methyl-1H-pyrazole-3-carboxamide] | inhibition at 3 µM (full-length human RORγt; [2]): 106%
3 | 2 | 0.16 | COCCn1nc(C(=O)NC[C@H]2CC[C@H](S(C)(=O)=O)CC2)c(Cl)c1-c1ccc(CC(C)(C)C(F)(F)F)cc1OC(F)F [Example 148, 4-Chloro-5-(2-(difluoromethoxy)-4-(3,3,3-trifluoro-2,2-dimethylpropyl)phenyl)-1-(2-methoxyethyl)-N-(((1r,4r)-4-(methylsulfonyl)cyclohexyl)methyl)-1H-pyrazole-3-carboxamide] | inhibition at 0.67 µM (full-length human RORγt; [2]): 91%
4 | 6 | 0.83 | COCCn1nc(C(=O)NC[C@]2(O)CC[C@@H](S(C)(=O)=O)CC2)c(Cl)c1-c1ccc(CC(C)(C)C(F)(F)F)cc1OC(F)F [Example 149, 4-Chloro-5-(2-(difluoromethoxy)-4-(3,3,3-trifluoro-2,2-dimethylpropyl)phenyl)-N-(((1s,4s)-1-hydroxy-4-(methylsulfonyl)cyclohexyl)methyl)-1-(2-methoxyethyl)-1H-pyrazole-3-carboxamide] | inhibition at 2 µM (full-length human RORγt; [2]): 99%
5 | 13 | 1.9 | COCCn1nc(C(=O)NC[C@]2(O)CC[C@@H](S(C)(=O)=O)CC2)c(C)c1-c1ccc(CC(C)(C)C(F)(F)F)cc1OC(F)F [Example 150, 5-(2-(Difluoromethoxy)-4-(3,3,3-trifluoro-2,2-dimethylpropyl)phenyl)-N-(((1s,4s)-1-hydroxy-4-(methylsulfonyl)cyclohexyl)methyl)-1-(2-methoxyethyl)-4-methyl-1H-pyrazole-3-carboxamide] | inhibition at 2 µM (full-length human RORγt; [2]): 95%
6 | 23 | 1.6 | C[C@H](Cc1ccc(-c2c(Cl)c(C(=O)NC[C@H]3CC[C@H](S(C)(=O)=O)CC3)nn2C)c(OC(F)F)c1)C(F)(F)F [Example 151, 4-Chloro-5-(2-(difluoromethoxy)-4-((R)-3,3,3-trifluoro-2-methylpropyl)phenyl)-1-methyl-N-(((1r,4R)-4-(methylsulfonyl)cyclohexyl)methyl)-1H-pyrazole-3-carboxamide] | inhibition at 1 µM (full-length human RORγt; [2]): 92%
7 | 4.5 | 0.79 | Cn1nc(C(=O)NC[C@]2(O)CC[C@@H](S(C)(=O)=O)CC2)c(Cl)c1-c1ccc(CC(C)(C)C(F)(F)F)cc1OC(F)F [Example 154, 4-Chloro-5-(2-(difluoromethoxy)-4-(3,3,3-trifluoro-2,2-dimethylpropyl)phenyl)-N-(((1s,4s)-1-hydroxy-4-(methylsulfonyl)cyclohexyl)methyl)-1-methyl-1H-pyrazole-3-carboxamide] | inhibition at 0.67 µM (full-length human RORγt; [2]): 91%
8 | 20 | 1.5 | CCS(=O)(=O)[C@H]1CC[C@H](CNC(=O)c2nn(C)c(-c3ccc(CC(C)(C)C(F)(F)F)cc3OC(F)F)c2Cl)CC1 [Example 156, 4-Chloro-5-(2-(difluoromethoxy)-4-(3,3,3-trifluoro-2,2-dimethylpropyl)phenyl)-N-(((1r,4r)-4-(ethylsulfonyl)cyclohexyl)methyl)-1-methyl-1H-pyrazole-3-carboxamide] | inhibition at […] (full-length human RORγt; HEK-293T, 0.33 μM compound concentration (footnote *****), read-out: RORγt (FL) Reporter Assay A or B, % inhibition): 89%
9 | 13 | 0.8 | Cc1c(C(=O)NC[C@]2(O)CC[C@@H](S(C)(=O)=O)CC2)nn(C)c1-c1ccc(CC(C)(C)C(F)(F)F)cc1OC(F)F [Example 157, 5-(2-(Difluoromethoxy)-4-(3,3,3-trifluoro-2,2-dimethylpropyl)phenyl)-N-(((1s,4s)-1-hydroxy-4-(methylsulfonyl)cyclohexyl)methyl)-1,4-dimethyl-1H-pyrazole-3-carboxamide] | inhibition at 0.3 µM (full-length human RORγt; [2]): 101%
10 | 3.4 | 16 | Cn1nc(C(=O)NC[C@]2(O)CC[C@@H](S(C)(=O)=O)CC2)c(Cl)c1-c1ccc(CCCC(F)(F)F)cc1OC(F)F [Example 158, 4-Chloro-5-(2-(difluoromethoxy)-4-(4,4,4-trifluorobutyl)phenyl)-N-(((1s,4s)-1-hydroxy-4-(methylsulfonyl)cyclohexyl)methyl)-1-methyl-1H-pyrazole-3-carboxamide] | inhibition at 3 µM (full-length human RORγt; [2]): 111%
11 | 5.9 | 0.48 | CCn1nc(C(=O)NC[C@H]2CC[C@H](S(C)(=O)=O)CC2)c(Cl)c1-c1ccc(CC(C)(C)C(F)(F)F)cc1C(F)(F)F [Example 162, 4-Chloro-1-ethyl-N-(((1r,4r)-4-(methylsulfonyl)cyclohexyl)methyl)-5-(4-(3,3,3-trifluoro-2,2-dimethylpropyl)-2-(trifluoromethyl)phenyl)-1H-pyrazole-3-carboxamide] | inhibition at […] (full-length human RORγt; [3]): 72%
12 | 3.3 | 0.63 | CCn1nc(C(=O)NC[C@]2(O)CC[C@@H](S(C)(=O)=O)CC2)c(Cl)c1-c1ccc(CC(C)(C)C(F)(F)F)cc1C(F)(F)F [Example 163, 4-Chloro-1-ethyl-N-(((1s,4s)-1-hydroxy-4-(methylsulfonyl)cyclohexyl)methyl)-5-(4-(3,3,3-trifluoro-2,2-dimethylpropyl)-2-(trifluoromethyl)phenyl)-1H-pyrazole-3-carboxamide] | inhibition at […] (full-length human RORγt; [3]): 78%
13 | 0.92 | 0.71 | CCn1nc(C(=O)NC[C@]2(C#N)CC[C@@H](S(C)(=O)=O)CC2)c(Cl)c1-c1ccc(CC(C)(C)C(F)(F)F)cc1Cl [Example 166, 4-Chloro-5-(2-chloro-4-(3,3,3-trifluoro-2,2-dimethylpropyl)phenyl)-N-(((1s*,4s*)-1-cyano-4-(methylsulfonyl)cyclohexyl)methyl)-1-ethyl-1H-pyrazole-3-carboxamide] | inhibition at 0.07 µM (full-length human RORγt; HEK-293T, 0.07 μM compound concentration (footnote *********), read-out: RORγt (FL) Reporter Assay A or B, % inhibition): 88%
14 | 24 | 8.6 | CCn1nc(C(=O)NC[C@]2(O)CC[C@@H](S(C)(=O)=O)CC2)c(Cl)c1-c1ccc(CC(C)(C)C(F)(F)F)cc1 [Example 167, 4-Chloro-1-ethyl-N-(((1s,4s)-1-hydroxy-4-(methylsulfonyl)cyclohexyl)methyl)-5-(4-(3,3,3-trifluoro-2,2-dimethylpropyl)phenyl)-1H-pyrazole-3-carboxamide] | inhibition at 0.67 µM (full-length human RORγt; [2]): 83%
15 | 18 | 4 | CCn1nc(C(=O)NC[C@H]2CC[C@H](S(C)(=O)=O)CC2)c(Cl)c1-c1ccc(CC(C)(C)C(F)(F)F)cc1 [Example 168, 4-Chloro-1-ethyl-N-(((1r,4r)-4-(methylsulfonyl)cyclohexyl)methyl)-5-(4-(3,3,3-trifluoro-2,2-dimethylpropyl)phenyl)-1H-pyrazole-3-carboxamide] | inhibition at […] (full-length human RORγt; [3]): 71%
16 | 41 | 3.4 | CCn1nc(C(=O)NC[C@]2(C#N)CC[C@@H](S(C)(=O)=O)CC2)c(Cl)c1-c1ccc(CC(C)(C)C(F)(F)F)cc1 [Example 169, 4-Chloro-N-(((1s*,4s*)-1-cyano-4-(methylsulfonyl)cyclohexyl)methyl)-1-ethyl-5-(4-(3,3,3-trifluoro-2,2-dimethylpropyl)phenyl)-1H-pyrazole-3-carboxamide] | inhibition at […] (full-length human RORγt; [3]): 85%
17 | 440 | 14 | CCn1nc(C(=O)NC[C@H]2CC[C@H](S(C)(=O)=O)CC2)c(Cl)c1-c1ccc(CCC(F)(F)F)cc1C(F)(F)F [Example 171, 4-Chloro-1-ethyl-N-(((1r,4r)-4-(methylsulfonyl)cyclohexyl)methyl)-5-(2-(trifluoromethyl)-4-(3,3,3-trifluoropropyl)phenyl)-1H-pyrazole-3-carboxamide] | inhibition at 2 µM (full-length human RORγt; [2]): 24%

Row | SMILES | IC50 (full-length human RORγt) [nM] | Kd [1] [nM] | also measured
18 | Cn1nc(C(=O)NC[C@H]2CC[C@H](S(C)(=O)=O)CC2)c(Cl)c1-c1ccc(CC(C)(C)C(F)(F)F)cc1OC(F)F [Example 155, 4-Chloro-5-(2-(difluoromethoxy)-4-(3,3,3-trifluoro-2,2-dimethylpropyl)phenyl)-1-methyl-N-(((1r,4r)-4-(methylsulfonyl)cyclohexyl)methyl)-1H-pyrazole-3-carboxamide] | 4.2 | 0.33 | –
19 | CCn1nc(C(=O)NC[C@]2(O)CC[C@@H](S(C)(=O)=O)CC2)c(Cl)c1-c1ccc(CC(C)(C)C(F)(F)F)cc1Cl [Example 164, 4-Chloro-5-(2-chloro-4-(3,3,3-trifluoro-2,2-dimethylpropyl)phenyl)-1-ethyl-N-(((1s,4s)-1-hydroxy-4-(methylsulfonyl)cyclohexyl)methyl)-1H-pyrazole-3-carboxamide] | 6.6 | 0.5 | –
